Like-named read-outs stand apart in the source and are kept apart here. e = 2'-O-(2-methoxyethyl) (MOE); d = 2'-deoxy (DNA)
Columns and labels:
[1] = mouse, in vivo, sc, 50 mg/kg
[2] = rat, in vivo, sc, 50 mg/kg
[3] = mouse, in vivo, sc, 50 mg/kg; remark: listed apart in the source
[4] = rat, in vivo, sc, 50 mg/kg; remark: listed apart in the source
[5] = mouse, in vivo, sc, 50 mg/kg; remark: listed apart in the source
[6] = rat, in vivo, sc, 50 mg/kg; remark: listed apart in the source

Substance | HCT [1] [%] | Lymphocyte [1] | Neutrophil [1] | Platelets [1] | RBC [1] | WBC [1] | hemoglobin [1] [g/dL] | BUN [2] [mg/dL] | Creatinine [2] [mg/dL] | Urine protein/creatinine ratio [2] | ALT [3] [IU/L] | AST [3] [IU/L] | Albumin [3] | Bilirubin [3] [mg/dL] | ALT [4] [IU/L] | AST [4] [IU/L] | Albumin [4] | Bilirubin [4] [mg/dL] | BUN [5] [mg/dL] | HCT [6] [%] | further results
ISIS 445498: 5-8-5 or 6-8-6 MOE microwalk gapmer (Table 44) (antisense GGTGCACAGTTTCTGGCAGG; sugars from the 5' end e6 d8 e6, backbone and methylation of C not given here) | 47 | 3241 | 1197 | 802 | 9.4 | 5 | 13.9 | 25 | 0.5 | 3.1 | 66 | 102 | 3.4 | 0.24 | 417 | 124 | 3.7 | 0.14 | 28 | 49 | Lymphocyte [6]: 89%; Neutrophil [6]: 9%; Platelets [6]: 1061 nL⁻¹; RBC [6]: 8.5 pL⁻¹; WBC [6]: 13 nL⁻¹; hemoglobin [6]: 14.7 g/dL; monocytes [6]: 2.0%
ISIS 445504: 5-8-5 or 6-8-6 MOE microwalk gapmer (Table 44) (antisense GGCATTGGTGCACAGTTTCT; sugars from the 5' end e6 d8 e6, backbone and methylation of C not given here) | 49 | 3578 | 959 | 826 | 9.6 | 5 | 14.7 | 26 | 0.4 | 4.3 | 71 | 107 | 3.4 | 0.17 | 206 | 86 | 3.5 | 0.11 | 29 | 50 | Lymphocyte [6]: 87%; Neutrophil [6]: 10%; Platelets [6]: 776 nL⁻¹; RBC [6]: 8.9 pL⁻¹; WBC [6]: 16 nL⁻¹; hemoglobin [6]: 14.7 g/dL; monocytes [6]: 2.0%
ISIS 445509: 5-8-5 or 6-8-6 MOE microwalk gapmer (Table 44) (antisense CGGACGGCATTGGTGCACAG; sugars from the 5' end e6 d8 e6, backbone and methylation of C not given here) | 51 | 3758 | 1104 | 1085 | 10.2 | 5 | 15.3 | 27 | 0.5 | 4.0 | 80 | 117 | 3.1 | 0.17 | 676 | 291 | 3.5 | 0.14 | 29 | 47 | Lymphocyte [6]: 84%; Neutrophil [6]: 11%; Platelets [6]: 1115 nL⁻¹; RBC [6]: 8.4 pL⁻¹; WBC [6]: 17 nL⁻¹; hemoglobin [6]: 14.1 g/dL; monocytes [6]: 3.8%
ISIS 445513: 5-8-5 or 6-8-6 MOE microwalk gapmer (Table 44) (antisense GCAGCGGACGGCATTGGTGC; sugars from the 5' end e6 d8 e6, backbone and methylation of C not given here) | – | 5523 | 959 | 942 | – | – | – | 24 | 0.4 | 4.6 | 37 | 84 | 3.1 | 0.22 | 214 | 91 | 3.5 | 0.15 | 27 | 44 | Lymphocyte [6]: 82%; Neutrophil [6]: 14%; Platelets [6]: 1051 nL⁻¹; RBC [6]: 7.8 pL⁻¹; WBC [6]: 17 nL⁻¹; hemoglobin [6]: 13.0 g/dL; monocytes [6]: 3.5%
ISIS 445503: 5-8-5 or 6-8-6 MOE microwalk gapmer (Table 44) (antisense GCATTGGTGCACAGTTTCTG; sugars from the 5' end e6 d8 e6, backbone and methylation of C not given here) | 46 | 6436 | 1475 | 309 | 9.2 | 8 | 13.6 | – | – | – | 1314 | 852 | 3.4 | 0.28 | – | – | – | – | 29 | – | –
ISIS 445530: 5-8-5 or 6-8-6 MOE microwalk gapmer (Table 44) (antisense GCATTGGTGCACAGTTTC; sugars from the 5' end e5 d8 e5, backbone and methylation of C not given here) | 50 | 5488 | 930 | 849 | 10.0 | 7 | 15.1 | 22 | 0.4 | 4.2 | 104 | 136 | 3.2 | 0.18 | 116 | 56 | 3.7 | 0.11 | 26 | 50 | Lymphocyte [6]: 87%; Neutrophil [6]: 11%; Platelets [6]: 1249 nL⁻¹; RBC [6]: 8.9 pL⁻¹; WBC [6]: 12 nL⁻¹; hemoglobin [6]: 14.7 g/dL; monocytes [6]: 2.0%
ISIS 445505: 5-8-5 or 6-8-6 MOE microwalk gapmer (Table 44) (antisense CGGCATTGGTGCACAGTTTC; sugars from the 5' end e6 d8 e6, backbone and methylation of C not given here) | 49 | 3447 | 818 | 725 | 9.6 | 5 | 14.6 | 24 | 0.4 | 3.8 | 116 | 153 | 3.2 | 0.18 | 356 | 243 | 3.6 | 0.15 | 29 | 50 | Lymphocyte [6]: 87%; Neutrophil [6]: 10%; Platelets [6]: 1089 nL⁻¹; RBC [6]: 9.1 pL⁻¹; WBC [6]: 21 nL⁻¹; hemoglobin [6]: 15.0 g/dL; monocytes [6]: 2.5%

— patent publication US20230263822A1, “MODULATION OF FACTOR 11 EXPRESSION” (Ionis Pharmaceuticals, Inc., priority 2008, published 2023)
